# How the values were obtained:
# [1] = tested on: carrageenan-induced paw swelling; assay: Carrageenan Paw Edema Model; assay type: in vivo; conditions: rat, 100 mg/kg p.o., 2 hours post carrageenan administration
# Excerpt: Procedure for Testing Antiinflammatory Response
# The procedure used to detect the antiinflammatory activity of a compound of the present invention for which there is a good correlation with human efficacy is the Carrageenan Paw Edema Model (as described in Levy, L., Carrageenan Paw Edema in the Mouse, Life Sci., 1969, 8, 11, 601-6).
# Male, Sprague-Dawley rats (Charles River Laboratories) 175-200 g are housed in a climate-controlled, virus free environment for at least 5 days prior to testing.
# Carrageenan is prepared in saline (0.5% carrageenan solution in 0.9% saline) and injected in a 0.1 mL volume into the footpad of the rat. Test compound is administered orally by gavage 30-60 minutes prior to footpad challenge. Paws are dipped into a mercury plethysmograph edema computer (Buxco Electronics) and the foot displacement is recorded at 0 time and at various times after challenge with carrageenan. Rats treated with test compound are compared to vehicle controls for any inhibition of carrageenan induced paw swelling.
# The % Inhibition (% I) by a compound tested was calculated according to the formula: %I=100−[100×(TCPV/VCPV)]; wherein TCPV is defined as the mean Change in Paw Volume in the Treated group and VCPV is the mean Change in Paw Volume in the Vehicle group.
# [2] = tested on: voltage-gated sodium channels; assay: [14C]guanidinium flux assay in SK-N-SH cells (veratridine stimulus); assay type: cell-based; conditions: 10 μM compound, 100 μM veratridine
# Description: Screening Assay for Voltage-Gated Sodium Channel Antagonists [^14C] Guanidinium Flux Assay
# (§1) SK-N-SH neuroblastoma cells were maintained in a propagation medium containing modified Eagle's medium and 10% (v/v) fetal bovine serum and were incubated at 37° C. in a 5% CO2 atmosphere. Only cells with fewer than 20 passages were used in each assay. All drugs were prepared in DMSO, and the final concentration of solvent was less than 0.1% (v/v). Veratridine, a toxin that selectively promotes persistent activation of voltage-gated sodium channels, served as the stimulus.
# SK-N-SH cells were plated at 1×10^5 cells/well in 96-well Cytostar-T microscintillating plates in propagation medium and experiments were performed 6-7 days after plating. Prior to assay, the SK-N-SH cells were washed twice with assay buffer containing 50 mM HEPES (pH 7.45), 5.4 mM potassium chloride, 0.8 mM magnesium chloride, 130 mM choline chloride, 5.5 mM glucose and 0.1 mg/mL bovine serum albumin. Next, the plates were allowed to equilibrate for 10 min at 37° C. in assay buffer. After this incubation period, the cells were stimulated with 100 μM veratridine in the presence or absence of investigational compounds prepared in a 96-well plate (prepared at a final concentration of 10 μM in DMSO). The 96-well dosing plate was prepared by mixing 25 μL of a drug/assay buffer solution per well with 25 μL of 0.7 μCi/mL [^14C]guanidine hydrochloride in assay buffer. 50 μL aliquots from the dosing plate were then added to the cells. One sample containing 100 μM veratridine and 10 μM tetrodotoxin accounted for nonspecific activity. The plates were incubated for 1 hr at room temperature and the radioactivity was counted in a 1450 Microbeta scintillation counter.
# [3] = tested on: mechanical allodynia after L5 spinal nerve ligation; assay: Chung Model (spinal nerve ligation) antiallodynic effect; assay type: in vivo; conditions: po; rat, orally administered
# Excerpt: Procedure for Testing Antiallodynic Effect
# The procedure used to detect the antiallodynic effect of a compound of the present invention for which there is a good correlation with human efficacy for the treatment of pain is the procedure for the measurement of allodynia found in the Chung Model (Kim S. H. and Chung J. M., An Experimental Model for Peripheral Neuropathy Produced by Segmental Spinal Nerve Ligation in the Rat, Pain, 1992, 50, 355-363). The antiallodynic effect of the composition of the present invention in the Chung Model is expressed in % MPE (Maximum Possible Effect).
# Male Sprague-Dawley rats, weighing approximately 200 g each were anesthetized with isoflurane. The spinal nerve at the level of L5 was exposed through an incision just left of the dorsal midline and tightly ligated with 6-0 silk. At various times after surgery, animals were tested for mechanical allodynia with von Frey hairs (monofilaments which are calibrated to bend under a certain amount of pressure, ranging from 0.41 to 15.1 g). In order to calculate a paw withdrawal threshold (PWT), tactile allodynia was measured by recording the pressure at which the affected paw was withdrawn from graded stimuli according to the procedure of S. R. Chaplan, J. W. Pogrel, T. L. Yaksh, Role of Voltage-Dependent Calcium Channel Subtypes in Experimental Tactile Allodynia, J. Pharmacol. Exp. Ther., 1994, 269, 1117-1123. Normal rats can withstand at least 15 g of pressure without responding. Operated rats, however, can respond to as little as 0.25 g of pressure. The surgery was deemed successful if the animal responded with a PWT of less than 4 g of pressure applied to the affected paw. […] The PWT was used to calculate the % maximal possible effect (% MPE) according to the formula: %MPE=100×[(PWT−CT)/(CO−CT)]; wherein PWT is defined as Paw Withdrawal Threshold, CT is Control Threshold, and CO is Cut Off (defined as 15 g).
# The sham operation consisted of a similar surgery; the spinal nerve was visualized without being ligated.
# Compounds selected from Formula (I) and Formula (II) were tested for activity in treating or modulating neuropathic pain by being dissolved or suspended in either water or hydroxypropyl methylcellulose, respectively. Postoperative animals between 14 to 42 days were fasted overnight prior to dosing. Animals were orally dosed and dosage volumes were calculated on a 4 mL/kg basis.
# [4] = tested on: voltage-gated sodium channels; assay: Fluorometric membrane potential assay in SK-N-SH cells (veratridine stimulus, FLIPR); assay type: cell-based; conditions: 10 μM compound, 5 μM veratridine
# Description: Screening Assay for Voltage-Gated Sodium Channel Antagonists Fluorometric Membrane Potential Assay
# as §1, with “stimulus. 24 hr prior to testing, 1×10^5 cells/well were plated into 96-well plates specifically designed for use in a fluorescent imaging plate reader (FLIPR) (Molecular Devices, Sunnyvale, Calif.)” for “stimulus.”
# Prior to screening, monolayers of cells were loaded with 100 μL/well of a proprietary voltage-sensitive dye (Molecular Devices, Sunnyvale, Calif.) for 30 min at 37° C. After this incubation period, the cells were stimulated with 5 μM veratridine in the presence or absence of investigational compounds (prepared at a final concentration of 10 μM in DMSO). A sample containing 5 μM veratridine and 10 μM tetrodotoxin accounted for nonspecific activity. The fluorescence was monitored by the FLIPR (Molecular Devices) from 10 sec prior to drug addition (50 μL) to 170 sec after drug addition at 25° C. During sodium channel activation, the cells depolarize and the dye associates with cell membranes, resulting in increased fluorescence.
smiles,measurement,setting,value
"Cn1cc(C(=O)c2ccncc2)cc1C(=O)c1ccc(Cl)cc1 [Cpd 1, [5-(4-Chlorobenzoyl)-1-methyl-1H-pyrrol-3-yl]pyridin-4-ylmethanone]",% inhibition of carrageenan-induced paw swelling,[1],35%
same,% GFI at 10 μM (% guanidinium flux inhibition),[2],23%
same,ED50,[3],22 mg/kg
same,% FI at 10 μM (% fluorescence inhibition),[4],32%

# Source: patent US6897319B2, “Useful aroyl pyrrole heteroaryl methanones and methanols” (Ortho-McNeil Pharmaceutical, Inc., priority 2001, dated 2005)
